According to patent US7253187B2, “Heterocyclic inhibitors of ERK2 and uses thereof” (Vertex Pharmaceuticals Incorporated, priority 2001, dated 2007):
pIC50, pKi: −log10 of the molar value.

Experiments:
GSK-3β (AA 1–420) = target: T1, GSK-3β (AA 1–420) (Homo sapiens, UniProt P49841); assay: GSK-3 inhibition assay (coupled enzyme system); format: biochemical; details: read-out: GSK3 Inhibitory Activity (Ki class)
T1 construct: GSK-3β (AA 1–420)
In short: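 ADP production read via pyruvate kinase/lactate dehydrogenase–coupled NADH consumption over 10 min at 30 °C. Ki derived from rates versus inhibitor concentration.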

Aurora-2 = target: T2, Aurora-2 (Homo sapiens, UniProt O14965); assay: Aurora-2 inhibition assay (coupled enzyme assay); format: biochemical
T2 sequence (O14965 1-403): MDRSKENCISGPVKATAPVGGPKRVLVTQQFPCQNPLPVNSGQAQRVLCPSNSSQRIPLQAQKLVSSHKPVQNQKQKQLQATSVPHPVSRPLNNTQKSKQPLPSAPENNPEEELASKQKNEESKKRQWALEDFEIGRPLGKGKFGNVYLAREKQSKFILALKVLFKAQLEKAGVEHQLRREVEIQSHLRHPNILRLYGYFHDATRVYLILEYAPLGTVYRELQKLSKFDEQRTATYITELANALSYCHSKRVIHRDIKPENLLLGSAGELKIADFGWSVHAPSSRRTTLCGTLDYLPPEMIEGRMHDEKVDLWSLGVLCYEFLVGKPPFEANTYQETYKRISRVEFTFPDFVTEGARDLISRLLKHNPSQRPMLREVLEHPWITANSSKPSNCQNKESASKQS
Method: Compounds were screened in the following manner for their ability to inhibit Aurora-2 using a standard coupled enzyme assay (Fox et al (1998) Protein Sci 7, 2249).
To an assay stock buffer solution containing 0.1M HEPES 7.5, 10 mM MgCl2, 1 mM DTT, 25 mM NaCl, 2.5 mM phosphoenolpyruvate, […], 30 mg/ml pyruvate kinase, 10 mg/ml lactate dehydrogenase, […], and 800 μM peptide (LRRASLG, American Peptide, Sunnyvale, Calif.) was added a DMSO solution of a compound of the present invention to a final concentration of 30 μM. The resulting mixture was incubated at 30° C. for 10 min. The reaction was initiated by the addition of 10 μL of Aurora-2 stock solution to give a final concentration of 70 nM in the assay. The rates of reaction were obtained by monitoring absorbance at 340 nm over a 5 minute read time at 30° C. using a BioRad Ultramark plate reader (Hercules, Calif.). The Ki values were determined from the rate data as a function of inhibitor concentration.

AKT3 = AKT3 (Homo sapiens, UniProt Q9Y243); assay: AKT3 inhibition assay (coupled enzyme assay); format: biochemical
AKT3, sequence (Q9Y243 whole entry, species assumed): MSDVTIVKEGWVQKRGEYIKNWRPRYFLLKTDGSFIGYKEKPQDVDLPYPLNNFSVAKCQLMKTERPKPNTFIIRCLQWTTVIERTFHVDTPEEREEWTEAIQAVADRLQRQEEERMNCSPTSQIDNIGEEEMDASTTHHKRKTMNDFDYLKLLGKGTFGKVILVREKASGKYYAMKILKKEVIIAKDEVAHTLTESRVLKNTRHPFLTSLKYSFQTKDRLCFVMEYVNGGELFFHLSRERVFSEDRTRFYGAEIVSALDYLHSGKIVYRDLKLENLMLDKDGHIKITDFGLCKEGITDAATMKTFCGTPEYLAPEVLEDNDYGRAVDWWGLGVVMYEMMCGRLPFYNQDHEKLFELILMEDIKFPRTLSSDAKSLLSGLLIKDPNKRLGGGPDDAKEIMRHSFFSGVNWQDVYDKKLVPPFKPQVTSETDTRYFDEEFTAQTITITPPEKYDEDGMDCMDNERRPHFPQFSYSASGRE
Method: Compounds were screened for their ability to inhibit AKT3 using a standard coupled enzyme assay (Fox et al., Protein Sci., (1998) 7, 2249). Assays were carried out in a mixture of 100 mM HEPES 7.5, 10 mM MgCl2, 25 mM NaCl , 1 mM DTT and 1.5% DMSO. Final substrate concentrations in the assay were 170 μM ATP (Sigma Chemicals) and 200 μM peptide (RPRAATF, American Peptide, Sunnyvale, Calif.). Assays were carried out at 30° C. and 45 nM AKT3. Final concentrations of the components of the coupled enzyme system were 2.5 mM phosphoenolpyruvate, 300 μM NADH, 30 μg/ML pyruvate kinase and 10 μg/ml lactate dehydrogenase.
An assay stock buffer solution was prepared containing all of the reagents listed above, with the exception of AKT3, DTT, and the test compound of interest. 56 μl of the stock solution was placed in a 384 well plate followed by addition of 1 μl of 2 mM DMSO stock containing the test compound (final compound concentration 30 μM). The plate was preincubated for about 10 minutes at 30° C. and the reaction initiated by addition of 10 μl of enzyme (final concentration 45 nM) and 1 mM DTT. Rates of reaction were obtained using a BioRad Ultramark plate reader (Hercules, Calif.) over a 5 minute read time at 30° C.

ERK2 = ERK2 (Homo sapiens, UniProt P28482); assay: ERK2 inhibition assay (spectrophotometric coupled-enzyme assay); format: biochemical; details: read-out: ERK2 Inhibitory Activity (Ki class D-F)
ERK2, sequence (P28482 whole entry): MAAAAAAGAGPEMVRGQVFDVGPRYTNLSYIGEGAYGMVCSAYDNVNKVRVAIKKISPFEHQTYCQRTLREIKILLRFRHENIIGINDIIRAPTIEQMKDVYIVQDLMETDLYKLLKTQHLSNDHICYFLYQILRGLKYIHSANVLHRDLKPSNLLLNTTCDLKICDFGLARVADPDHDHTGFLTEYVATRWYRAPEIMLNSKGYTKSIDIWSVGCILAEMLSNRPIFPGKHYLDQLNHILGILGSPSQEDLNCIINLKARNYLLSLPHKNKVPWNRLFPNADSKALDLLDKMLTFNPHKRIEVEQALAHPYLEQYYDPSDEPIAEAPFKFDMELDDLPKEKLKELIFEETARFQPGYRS
Method: The IC50 was evaluated from the rate data as a function of inhibitor concentration. […] The compound numbers correspond to the compound numbers in Table 1.

CDK-2/Cyclin A = CDK-2/Cyclin A (Homo sapiens, UniProt P24941); assay: CDK-2 inhibition assay (coupled enzyme assay); format: biochemical
Method: To an assay stock buffer solution containing 0.1M HEPES 7.5, 10 mM MgCl2, 1 mM DTT, 25 mM NaCl, 2.5 mM phosphoenolpyruvate, […], […], […], […], and 100 μM peptide ([…], American Peptide, Sunnyvale, Calif.) was added a DMSO solution of a compound of the present invention to a final concentration of 30 μM.
The Ki values were determined from the rate data as a function of inhibitor concentration.

ERK1 = ERK1 (Homo sapiens, UniProt P27361); assay: ERK1 inhibition assay (spectrophotometric coupled-enzyme assay); format: biochemical; details: read-out: inhibit ERK1 with an activity (Ki)
ERK1, sequence (P27361 whole entry, species assumed): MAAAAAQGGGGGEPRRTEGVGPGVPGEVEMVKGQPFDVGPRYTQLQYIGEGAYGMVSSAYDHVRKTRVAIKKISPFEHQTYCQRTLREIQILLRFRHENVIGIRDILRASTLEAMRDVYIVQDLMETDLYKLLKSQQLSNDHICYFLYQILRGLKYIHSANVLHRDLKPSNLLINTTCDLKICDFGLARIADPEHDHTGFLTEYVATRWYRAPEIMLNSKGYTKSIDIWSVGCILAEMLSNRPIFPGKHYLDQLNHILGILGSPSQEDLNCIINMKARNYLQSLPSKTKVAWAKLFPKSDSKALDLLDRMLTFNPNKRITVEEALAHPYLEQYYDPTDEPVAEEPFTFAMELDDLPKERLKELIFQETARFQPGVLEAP
Method: Compounds were assayed for the inhibition of ERK1 by a spectrophotometric coupled-enzyme assay (Fox et al (1998) Protein Sci 7, 2249). In this assay, a fixed concentration of activated ERK1 (20 nM) was incubated with various concentrations of the compound in DMSO (2.0%) for 10 min. at 30° C. in 0.1 M HEPES buffer, pH 7.6, containing 10 mM MgCl2, 2.5 mM-phosphoenolpyruvate, 200 μM NADH, 30 μg/mL pyruvate kinase, 10 μg/mL lactate dehydrogenase, and 150 μM erktide peptide. The reaction was initiated by the addition of 140 μM ATP (20 μL). The rate of decrease of absorbance at 340 nm was monitored. The Ki was evaluated from the rate data as a function of inhibitor concentration.

[1] = tested on: Colon cancer cells (HT-29 cell line); assay: ERK2 inhibition: cell proliferation assay (3H-thymidine uptake); format: cell-based; details: Homo sapiens, 3 days
Method: Compounds may be assayed for the inhibition of ERK2 by a cell proliferation assay. […] Colon cancer cells (HT-29 cell line) are added to each of 84-wells of a 96 well plate at a seeding density of 10,000 cells/well/150 μL. The cells are allowed to attach to the plate by incubating at 37° C. for 2 hours. […] The test compound solution (50 μL) is added to each of 72 cell-containing wells. To the 12 remaining cell-containing wells, only complete media (200 μL) is added to form a control group in order to measure maximal proliferation. To the remaining 12 empty wells, complete media is added to form a vehicle control group in order to measure background. The plates are incubated at 37° C. for 3 days. A stock solution of ^3H-thymidine (1 mCi/mL, New England Nuclear, Boston, Mass.) is diluted to 20 μCi/mL in RPMI medium then 20 μL of this solution is added to each well. The plates are further incubated at 37° C. for 8 hours then harvested and analyzed for ^3H-thymidine uptake using a liquid scintillation counter.

T1 sequence (P49841 whole entry, species assumed, the tested form may be a part): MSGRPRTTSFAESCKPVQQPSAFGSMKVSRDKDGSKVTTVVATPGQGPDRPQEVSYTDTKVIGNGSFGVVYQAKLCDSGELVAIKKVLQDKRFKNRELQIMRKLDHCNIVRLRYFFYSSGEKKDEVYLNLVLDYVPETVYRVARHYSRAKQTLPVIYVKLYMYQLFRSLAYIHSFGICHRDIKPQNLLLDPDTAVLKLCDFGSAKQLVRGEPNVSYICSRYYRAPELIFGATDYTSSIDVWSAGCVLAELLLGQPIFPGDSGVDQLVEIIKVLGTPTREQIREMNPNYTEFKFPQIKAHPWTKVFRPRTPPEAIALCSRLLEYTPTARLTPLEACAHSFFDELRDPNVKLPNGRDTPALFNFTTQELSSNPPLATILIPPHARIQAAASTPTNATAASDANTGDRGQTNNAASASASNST

| Structure (SMILES) | pKi (GSK-3β (AA 1–420)) | found to inhibit Aurora-2 (Aurora-2) | inhibit AKT3 (AKT3) | pKi (ERK2) | pKi (ERK1) | pIC50 [1] | pKi (CDK-2/Cyclin A) |
| --- | --- | --- | --- | --- | --- | --- | --- |
| Cc1cnc(Nc2cccc(O)c2)nc1-c1c[nH]c(C(=O)NC(CO)c2ccccc2)c1 (stereo not drawn) [III-a-138, 4-[2-(3-Hydroxy-phenylamino)-5-methyl-pyrimidin-4-yl]-1H-pyrrole-2-carboxylic acid (2-hydroxy-1-phenyl-ethyl)-amide] | > 7.00 | found to inhibit Aurora-2 | – | – | – | – | – |
| CCNc1ncc(C)c(-c2c[nH]c(C(=O)N[C@H](CO)c3ccccc3)c2)n1 [III-a-117, 4-(2-Ethylamino-5-methyl-pyrimidin-4-yl)-1H-pyrrole-2-carboxylic acid (2-hydroxy-1-phenyl-ethyl)-amide] | > 7.00 | found to inhibit Aurora-2 | – | > 7.00 | – | – | 4.70 to 6.00 |
| Cc1cnc(Nc2ccc(S(N)(=O)=O)cc2)nc1-c1c[nH]c(C(=O)NC(CO)c2ccccc2)c1 (stereo not drawn) [III-a-140, 4-[5-Methyl-2-(4-sulfamoyl-phenylamino)-pyrimidin-4-yl]-1H-pyrrole-2-carboxylic acid (2-hydroxy-1-phenyl-ethyl)-amide] | > 7.00 | found to inhibit Aurora-2 | – | > 7.00 | – | – | – |
| Cc1cnc(NC2CC2)nc1-c1c[nH]c(C(=O)NC(CO)c2cccc(C(F)(F)F)c2)c1 (stereo not drawn) [III-a-202, 4-(2-Cyclopropylamino-5-methyl-pyrimidin-4-yl)-1H-pyrrole-2-carboxylic acid [2-hydroxy-1-(3-trifluoromethyl-phenyl)-ethyl]-amide] | < 6.00 | – | – | > 7.00 | > 7.00 | – | – |
| Cc1cnc(Nc2ccccc2)nc1-c1c[nH]c(C(=O)NC(CO)c2ccccc2)c1 (stereo not drawn) [III-a-116, 4-(5-Methyl-2-phenylamino-pyrimidin-4-yl)-1H-pyrrole-2-carboxylic acid (2-hydroxy-1-phenyl-ethyl)-amide] | – | found to inhibit Aurora-2 | – | – | – | – | – |
| Cc1cnc(Nc2cccc(F)c2)nc1-c1c[nH]c(C(=O)NC(CO)c2ccccc2)c1 (stereo not drawn) [III-a-136, 4-[2-(3-Fluoro-phenylamino)-5-methyl-pyrimidin-4-yl]-1H-pyrrole-2-carboxylic acid (2-hydroxy-1-phenyl-ethyl)-amide] | > 7.00 | found to inhibit Aurora-2 | – | – | – | > 7.00 | – |
| Cc1cnc(Nc2ccc3c(c2)OCO3)nc1-c1c[nH]c(C(=O)NC(CO)c2ccccc2)c1 (stereo not drawn) [III-a-139, 4-[2-(Benzo[1,3]dioxol-5-ylamino)-5-methyl-pyrimidin-4-yl]-1H-pyrrole-2-carboxylic acid (2-hydroxy-1-phenyl-ethyl)-amide] | > 7.00 | found to inhibit Aurora-2 | – | > 7.00 | – | > 7.00 | – |

Further lines, with some results ahead:

| pKi (GSK-3β (AA 1–420)) | found to inhibit Aurora-2 (Aurora-2) | inhibit AKT3 (AKT3) | pKi (ERK2) | pKi (ERK1) | pIC50 [1] | Structure (SMILES) | pKi (CDK-2/Cyclin A) |
| --- | --- | --- | --- | --- | --- | --- | --- |
| – | – | inhibit AKT3 | > 7.00 | – | – | Cc1cnc(NC#N)nc1-c1c[nH]c(C(=O)NC(CO)c2ccccc2)c1 (stereo not drawn) [III-a-238, 4-(2-Cyanoamino-5-methyl-pyrimidin-4-yl)-1H-pyrrole-2-carboxylic acid (2-hydroxy-1-phenyl-ethyl)-amide] | – |
| > 7.00 | found to inhibit Aurora-2 | – | > 7.00 | – | – | Cc1cnc(Nc2cccc(OCc3ccccc3)c2)nc1-c1c[nH]c(C(=O)NC(CO)c2ccccc2)c1 (stereo not drawn) [III-a-141, 4-[2-(3-Benzyloxy-phenylamino)-5-methyl-pyrimidin-4-yl]-1H-pyrrole-2-carboxylic acid (2-hydroxy-1-phenyl-ethyl)-amide] | – |
| – | – | – | > 7.00 | > 7.00 | – | Cc1cnc(NC2CC2)nc1-c1c[nH]c(C(=O)NC(CO)c2cccc(Cl)c2)c1 (stereo not drawn) [III-a-204, 4-(2-Cyclopropylamino-5-methyl-pyrimidin-4-yl)-1H-pyrrole-2-carboxylic acid [1-(3-chloro-phenyl)-2-hydroxy-ethyl]-amide] | – |
| > 7.00 | – | – | > 7.00 | – | – | Cc1cnc(NC2CCC(O)CC2)nc1-c1c[nH]c(C(=O)NC(CO)c2ccccc2)c1 (stereo not drawn) [III-a-142, 4-[2-(4-Hydroxy-cyclohexylamino)-5-methyl-pyrimidin-4-yl]-1H-pyrrole-2-carboxylic acid (2-hydroxy-1-phenyl-ethyl)-amide] | > 7.00 |
| 6.00 to 7.00 | – | – | > 7.00 | > 7.00 | – | Cc1cccc(C(CO)NC(=O)c2cc(-c3nc(NC4CC4)ncc3C)c[nH]2)c1 (stereo not drawn) [III-a-205, 4–1(2-Cyclopropylamino-5-methyl-pyrimidin-4-yl)-1H-pyrrole-2-carboxylic acid (2-hydroxy-1-m-tolyl-ethyl)-amide] | – |
